Assay results reported in US8921424B2, “Histone deacetylase inhibitors, process for preparation and uses thereof” (Zhejiang Hisun Pharmaceutical Co. Ltd., priority 2007, dated 2014).

Columns and labels:
HCT-116 = test: Xenograft model, HCT-116; type: in vivo, mouse; details: i.p.
BXPC-3 = test: Cell-based proliferation assay (SRB), BXPC-3; details: Homo sapiens
[1] = Microsomal stability and clearance; type: in vitro ADME, human, mouse; details: microsomal stability; Table 4
Procedure: Measure of Microsomal Stability and Clearance with Compounds of this Invention
Verapamil (positive control) and compound solution, both at 10 mM, are diluted 200 fold. There are six reaction time points in the experiment (0 min, 5 min, 15 min, 30 min, 45 min, and 60 min), and triplicate samples are used for each data point. There are controls for time zero and negative drug effect (negative control containing no incubation buffer or enzyme). For each compound or Verapamil sample, there are also samples treated with compound or Verapamil at concentrations of no positive effect (at 5 μM and 2.5 μM, respectively). Diluted positive control (Verapamil) and compound solution are mixed with pre-heated (37° C.) incubation buffer (100 mM potassium phosphate buffer, NADPH regeneration system solution B, NAPDH regeneration system solution A, HLM/MLM in Milli-Q ultrapure water), and incubated at 37° C. for 10 min. 100 μL of stop solution mixture is (containing 80% acetonitrile, and 20% DMSO, both of HPLC grade) is dispensed into wells of separate sampling plates into each well. At each reaction time point (0 min, 5 min, 15 min, 30 min, 45 min, and 60 min) 50 μL of reaction solution is taken from wells in the incubation plate and transferred to its corresponding well in the sampling plate, and mixed by pipetting up and down with stop solution already added there. The sampling plates are then covered, placed on ice, and centrifuged at 2,000 rpm at 4° C. for 15 min. 100 μL supernatant is then taken from each well to LC/MS analysis (or stored at 4° C. in refrigerator until analysis).
Data analysis: % remaining of compound is calculated by area of each time point with respect to time 0% remaining against time (min) curve is plotted using the first-phase exponential decay equation y=y0e(−kT) on the Prism 4.0. Results are shown in the format of TOP, K, t1/2 (min), R2 value and % remaining against time curve.

HL-60 = test: Xenograft model, HL-60; type: in vivo, mouse; details: i.p.
SKOV-3 = test: Xenograft model, SKOV-3; type: in vivo, mouse; details: i.p.
HCT116 = test: Cell-based proliferation assay (SRB), HCT116; details: Homo sapiens
Procedure: Cell-Based Proliferation Assay for Determination of GI50 Values
A rapid multiwell plate assay using Sulforhodamine B (SRB) protein stain was adopted to evaluate the growth inhibitory effects of the compounds of the present invention. The screening panel of cancer cell lines includes Colo205 and HCT116 colon cancer cells, MDA-MB231 and MDA-MB435 chest cancer cells, A549 lung cancer cells, and Chinese hamster ovary cell line CHO, which were obtained from ATCC.
The cell line Colo205 is grown in RPMI 1640 medium containing 2 mM L-glutamine, 5% fetal bovine serum, and 1.0 mM sodium pyruvic acid. Cell lines A549 and MDA-MB231 are grown in RPMI 1640 medium containing 2 mM L-glutamine and 5% fetal bovine serum. The cell line MDA-MB435 is grown in DMEM medium containing 2 mM L-glutamine and 5% fetal bovine serum. The cell lines HCT 116 is grown in IMEM medium containing 2 mM L-glutamine and 5% fetal bovine serum. The CHO cell line, used as a normal control on toxicity, is grown in a special medium for cell line. For a typical screening experiment, A549 and Colo205 cells are inoculated into 96-well microtiter plates, with 100 μL per well, and 2000 and 5000 cells per well respectively for either cell line. MDA-MB435, HCT116, MDA-MB231 and CHO cells are also inoculated into 96-well microtiter plates, with 6000 cells per well. After cell inoculation, the microtiter plates are incubated at 37° C., 5% CO2, and 100% relative humidity for 24 hr in order to make cells adhere to well wall.
After 24 h incubation or time zero for drug addition, with each cell line 50 μl of cold 50% (w/v) TCA is added to wells used for control to fix cells in situ. Also at time zero, cells in other wells are treated with 100 μl of compound of different concentrations for 24 hr, 48 hr, and 72 hr respectively, with varying final compound concentration (0.1 μM, 1 μM, 5 μM 10 μM). For each treatment duration at each compound concentration, there are triplicate wells, as well as an array of control wells including a blank control well (cell culture medium only, no cells), a no-compound control well (adding same volume of cell culture medium but no compound), a positive control well (treated with Suberoylanilide hydroxamic acid (SAHA)), and normal cell well control (CHO cells). Following the addition of compounds, cell plates are incubated for 24 h, 48 h or 72 h per treatment group at 37° C., 5% CO2, and 100% relative humidity. The Treatment is then terminated by addition of cold TCA and incubation of 1 hr at 4° C. The supernatant is discarded, and all wells are washed five times with de-ioned water and air dried. Then each well is added with 100 μl sulforhodamine B (SRB) solution (0.4% (w/v) made in 1% acetic acid) and cell plates are incubated for 20-30 minutes at room temperature. After staining, unbound dye is removed by washing five times with 1% acetic acid and the plates are air dried. Bound stain is subsequently solubilized with 10 mM (200 μL) Tris base with the help of 5 min platform vibration or pipetting up and down, and the absorbance is read on an automated plate reader (M5 detection system, MD Group Ltd.) at a wavelength of 565 nm (calibrated zero reading of blank control at wavelength of 690 nm). The analytical software, XL-fit has been used to generate GI50 from a series of data thus obtained.

| SMILES | T/C(%) HCT-116 (HCT-116; 300 mg/kg, 14 days) | GI50 (BXPC-3; BXPC-3, Table 3) [µM] | half-life [1] [h] | T/C(%) HL-60 (HL-60; 200 mg/kg, 15 days) | T/C(%) SKOV-3 (SKOV-3; 200 mg/kg, 21 days) | GI50 (HCT116; HCT-116, Table 3) [µM] | GI50 (HCT116; HCT-116, Table 4) [µM] | T/C(%) HCT-116 (HCT-116; 80 mg/kg, 15 days) | T/C(%) HL-60 (HL-60; 80 mg/kg, 10 days) | T/C(%) SKOV-3 (SKOV-3; 80 mg/kg, 20 days) | T/C(%) HCT-116 (HCT-116; 30 mg/kg, 14 days) | GI50 (BXPC-3; BXPC-3, Table 4) [µM] | T/C(%) HL-60 (HL-60; 30 mg/kg, 10 days) | T/C(%) SKOV-3 (SKOV-3; 30 mg/kg, 20 days) |
| --- | --- | --- | --- | --- | --- | --- | --- | --- | --- | --- | --- | --- | --- | --- |
| CCCCCNc1cc(/C=C/C(=O)NO)ccc1SCCN(CC)CC [Example 2, 3-(4-(2-(diethylamino)ethylthio)-3-(pentylamino)phenyl)-N-hydroxy-acrylamide] | 31% (300,14) | 6.89 | 1.8 | 40% (200,15) | 45% (200,21) | 3.99 | 3.99 | – | – | – | – | – | – | – |
| O=C(CCCCCCC(=O)Nc1ccccc1)NO [SAHA, suberoylanilide hydroxamic acid, reference compound] | – | 5.68 | 1.6 | – | – | 1.52 | – | >60% (80,15) | 45% (80,10) | >60% (80,20) | – | – | – | – |
| CCCCc1nc2cc(/C=C/C(=O)NO)ccc2n1CCN(CC)CC [SB939, reference compound] | – | 6.78 | 1.9 | – | – | 1.35 | – | – | – | – | 30% (30,14) | 6.78 | 51% (30,10) | >60% (30,20) |
